US11318157B2, “6-6 bicyclic aromatic ring substituted nucleoside analogues for use as PRMT5 inhibitors” (Janssen Pharmaceutica NV, priority 2015, dated 2022)
Read-outs that look alike come from different tables or passages of the source.

Columns and labels:
PRMT5-MEP50 enzyme [1] = target: T1, PRMT5-MEP50 enzyme (Homo sapiens, UniProt O14744); assay: In vitro assay 1a: high throughput mass spectrometer assay of SAH formation, 10 nM enzyme, 60 min; format: biochemical; settings: averaged values, PRMT5-MEP50, 10 nM enzyme, read-out: pIC50 Assay 1a (converted)
T1 construct: One virus expresses full length human PRMT5 with Flag-tag at N-terminus; Flag (N); purchased Charles River (Argenta); host or cells: insect cells (Sf9), baculovirus co-infection
T1 sequence (O14744 whole entry): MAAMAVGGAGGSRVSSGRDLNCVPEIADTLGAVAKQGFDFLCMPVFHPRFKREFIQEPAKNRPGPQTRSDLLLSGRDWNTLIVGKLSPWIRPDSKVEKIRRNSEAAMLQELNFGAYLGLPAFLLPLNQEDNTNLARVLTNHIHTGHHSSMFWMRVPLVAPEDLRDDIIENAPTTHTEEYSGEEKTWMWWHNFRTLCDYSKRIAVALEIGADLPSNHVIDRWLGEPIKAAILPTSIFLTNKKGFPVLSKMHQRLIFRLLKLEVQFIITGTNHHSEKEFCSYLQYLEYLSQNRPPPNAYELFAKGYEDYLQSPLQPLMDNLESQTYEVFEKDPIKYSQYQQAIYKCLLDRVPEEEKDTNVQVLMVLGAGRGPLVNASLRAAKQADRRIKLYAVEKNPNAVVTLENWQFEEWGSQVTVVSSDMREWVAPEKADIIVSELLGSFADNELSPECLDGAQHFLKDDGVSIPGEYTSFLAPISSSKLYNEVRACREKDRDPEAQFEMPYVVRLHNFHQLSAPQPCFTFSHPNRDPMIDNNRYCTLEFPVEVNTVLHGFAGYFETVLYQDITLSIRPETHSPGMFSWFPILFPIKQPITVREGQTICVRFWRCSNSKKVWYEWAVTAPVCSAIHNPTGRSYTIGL
T1 sequence (Q9BQA1 whole entry partner): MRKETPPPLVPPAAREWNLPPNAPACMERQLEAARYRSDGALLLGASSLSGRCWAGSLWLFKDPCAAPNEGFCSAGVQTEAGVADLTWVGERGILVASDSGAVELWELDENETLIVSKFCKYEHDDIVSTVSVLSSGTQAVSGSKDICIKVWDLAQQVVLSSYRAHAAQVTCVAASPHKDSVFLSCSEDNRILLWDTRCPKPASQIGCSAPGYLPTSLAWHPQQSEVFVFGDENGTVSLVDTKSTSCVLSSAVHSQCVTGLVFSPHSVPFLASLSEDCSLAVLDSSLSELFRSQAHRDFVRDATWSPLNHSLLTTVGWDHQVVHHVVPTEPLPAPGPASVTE
From the text: Experimental Procedures In Vitro Assay (Assay 1a and 1b)
PRMT5-MEP50 enzyme was purchased from Charles River (Argenta). The enzyme complex was produced in insect cells (Sf9) infected simultaneously with two baculoviruses. One virus expresses full length human PRMT5 with Flag-tag at N-terminus, the second virus expresses full length MEP50 with His6-TEV cleavage at N-terminus. The protein was affinity purified using anti-Flag (M2) beads eluted with 3×FLAG peptide, followed by His-Select eluted with 0.5M imidazole. Eluted protein was then dialysed against tris-buffered saline (TBS) (pH 8.0) containing 20% glycerol and 3 mM dithiothreitol (DTT).
Full-length untagged human recombinant histone H2A (residues 1-130, Genbank Accession #NM_021052 MW=14.1 kDa) expressed in E. coli was purchased from Reaction Biology Corporation, Cat #HMT-11-146. Reagents used for making reaction buffer or stopping reaction were purchased including Tris base (Sigma Cat #T-1503), NaCl (Sigma Cat #RGF-3270), MgCl2 (Sigma Cat #M0250), DTTI (Invitrogen Cat #15508-013) and Formic Acid (Riedel deHaen, Cat #33015)
High Throughput Mass Spectrometer Assay
PRMT5 catalyzes the sequential methylations of the terminal nitrogen atoms on the guanidine groups of arginine residues within proteins using co-substrate S-adenosyl-L-methionine (AdoMet, SAM), forming mono-methyl (MMA), symmetric-dimethyl arginine (sDMA) and S-adenosyl-L-homocysteine (AdoHcy, SAH). The enzyme activity was determined by following the product SAH formation using high throughput mass spectrometry (Agilent Rapidfire 300 System coupled to a Sciex 4000 series QTrap® triple-quad MS/MS). The reaction buffer was 20 mM Tris-HCl, pH 8.5, 50 mM NaCl, 5 mM MgCl2 and 1 mM DTT. The reaction activity was stopped using 1% formic acid (final concentration).
The IC50 Studies were performed using eleven point dosing series made for each compound by serially diluted 1:2 in dimethyl sulfoxide (DMSO), with point 12 being a DMSO control. Compounds were first spotted to plates, and followed by addition of 2 μM SAM and 0.6 μM H2A (histone H2A) solution mixture. The same volume of enzyme solution was added to initiate the enzymatic reactions. The final concentrations of the reaction are at 1 μM SAM, 0.3 μM H2A and 10 nM enzyme (assay 1a) or 1.25 nM enzyme (assay 1b). The reaction was incubated at 30° C. for 60 minutes (min) when 10 nM enzyme was used and for 120 min when 1.25 nM enzyme was used. Subsequently, the reaction was quenched by addition of formic acid to a final concentration of 1%. The inhibitions of SAH formation in the presence of compounds were calculated as a percentage of the control relative to the uninhibited reaction as a function of inhibitor concentration. The data were fit as follows: Y=Bottom+(Top−Bottom)/(1+10^((log IC50−X)*h))
where IC50 is the inhibitor concentration (same unit as X) at 50% inhibition and h is the Hill slope. Y is percent of inhibition, X is log of compound concentration. Bottom and Top are the plateaus in same units as Y.

PRMT5-MEP50 enzyme [2] = target: T1, PRMT5-MEP50 enzyme; assay: In vitro assay 1b: high throughput mass spectrometer assay of SAH formation, 1.25 nM enzyme, 120 min; format: biochemical; settings: averaged values; PRMT5-MEP50, 1.25 nM enzyme, 120 min; read-out: pIC50 Assay 1b (converted)
How it was run: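 SAH product measured by RapidFire mass spectrometry after formic acid stop; IC50 from 11-point 1:2 dilutions, four-parameter fit. Reactions at 30 °C in 20 mM Tris pH 8.5 with 1 μM SAM, 0.3 μM H2A: assay 1a 10 nM PRMT5-MEP50, 60 min; assay 1b 1.25 nM, 120 min.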

[3] = system: nuclear symmetric Arginine dimethylation in A549 cells; assay: PD assay (assay 2): inhibition of nuclear symmetric Arginine dimethylation (SYM10 immunohistochemistry), 48 h; format: cell-based; settings: Homo sapiens
How it was run: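 Cells seeded at 400/well overnight, then treated 48 h at 37 °C, final DMSO 0.2%. Fixed and stained with SYM10 antibody plus Alexa 488 secondary, Hoechst and CellMask, then imaged on Opera. Normalized to DMSO (high) and 10 μM reference compound (low); averaged pIC50 reported.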

[4] = A549, averaged values, PD assay, A549 cells, symmetric Arginine dimethylation, read-out: pIC50 Assay 2 (converted)

| SMILES | IC50 (PRMT5-MEP50 enzyme [1]) [µM] | IC50 (PRMT5-MEP50 enzyme [2]) [µM] | IC50 [3, 4] [µM] | IC50 ([3]; A549, read-out: pIC50 Assay 2 (converted)) [µM] |
| --- | --- | --- | --- | --- |
| Nc1ncnc2c1ccn2[C@@H]1O[C@H](COc2ccc3ccc(NCc4ccc(Cl)cc4)nc3c2)[C@@H](O)[C@H]1O [Compound 132] | 0.000794 | 0.00251 | 0.00251 |  |
| Nc1ncnc2c1ccn2[C@@H]1C[C@H](CCc2ccc3cc(Br)c(NCC4CC4)nc3c2)[C@@H](O)[C@H]1O [Compound 148] | 0.398 | 0.794 | 0.2 |  |
| Cc1ncnc2c1ccn2[C@@H]1O[C@H](CCc2ccc3ccc(NCc4ccc(Cl)cc4)nc3c2)[C@@H](O)[C@H]1O [Compound 177] | 0.01 | 0.0316 | 0.0631 |  |
| Nc1ncnc2c1ccn2[C@@H]1C[C@H](CCc2ccc3cc(Cl)c(NCC4CC4)nc3c2)[C@@H](O)[C@H]1O [Compound 147] | 0.251 | 0.251 | 0.0316 |  |
| Nc1ncnc2c1ccn2[C@@H]1O[C@H](COc2cc(C(F)(F)F)c3cccnc3c2)[C@@H](O)[C@H]1O [Compound 37] | 1 | 0.631 | 5.01 |  |
| O[C@@H]1[C@@H](CCc2ccc3ccc(NCC4CC4)nc3c2)C[C@@H](n2ccc3cncnc32)[C@@H]1O [Compound 166] | 0.001 | 0.00501 | 0.001 |  |
| CNc1ccc2ccc(OC[C@H]3O[C@@H](n4ccc5c(N)ncnc54)[C@H](O)[C@@H]3O)cc2n1 [Compound 185] | 0.00398 | 0.00794 | 0.0501 |  |
| Nc1ncnc2c1ccn2[C@@H]1O[C@H](COc2ccc3ncccc3c2)[C@@H](O)[C@H]1O [Compound 11] | 3.16 | 7.94 | > 10 |  |
| N#Cc1cnc2cc(OC[C@H]3O[C@@H](n4ccc5c(N)ncnc54)[C@H](O)[C@@H]3O)ccc2c1 [Compound 98] | 0.631 | 1.58 | 10 |  |
| Nc1ncnc2c1ccn2[C@@H]1O[C@H](COc2cc3ncccc3cc2Cl)[C@@H](O)[C@H]1O [Compound 91] | 0.126 | 0.501 | 0.398 |  |
| Cc1ccc2ccc(OC[C@H]3O[C@@H](n4ccc5c(N)ncnc54)[C@H](O)[C@@H]3O)cc2n1 [Compound 21] | 1.26 | 1.58 | 5.01 |  |
| Nc1ncnc2c1ccn2[C@@H]1O[C@H](COc2cc3ncc(Cl)cc3cc2Cl)[C@@H](O)[C@H]1O [Compound 100] | 0.126 | 0.2 | 0.794 |  |
| N#Cc1cnc2cc(OC[C@H]3O[C@@H](n4ccc5c(N)ncnc54)[C@H](O)[C@@H]3O)ccc2c1Cl [Compound 28] | > 10 | 7.94 | > 20 |  |
| O[C@@H]1[C@H](O)[C@@H](CCc2ccc3ccc(NCc4ccc(Cl)cc4)nc3c2)O[C@H]1n1ccc2c(Cl)ncnc21 [Compound 127] | 0.0126 | 0.1 | 0.126 |  |
| Nc1ncnc2c1ccn2[C@@H]1O[C@H](COc2ccc3c(C(F)(F)F)ccnc3c2)[C@@H](O)[C@H]1O [Compound 99] | > 10 | > 100 | > 10 |  |
| Nc1ncnc2c1ccn2[C@@H]1O[C@H](COc2cccc3ncccc23)[C@@H](O)[C@H]1O [Compound 5] | 2 | 5.01 | > 10 |  |
| Nc1ncnc2c1c(F)cn2[C@@H]1O[C@H](COc2ccc3cccnc3c2)[C@@H](O)[C@H]1O [Compound 44] | 0.0631 | 0.126 | 0.251 |  |
| O[C@@H]1[C@H](O)[C@@H](COc2ccc3ccc(NCc4ccc(Cl)cc4)nc3c2)O[C@H]1n1ccc2c(Cl)ncnc21 [Compound 131] | 0.00794 | 0.0631 | ~0.0661 |  |

| SMILES | IC50 (PRMT5-MEP50 enzyme [1]) [µM] | IC50 (PRMT5-MEP50 enzyme [2]) [µM] | IC50 [3, 4] [µM] | IC50 ([3]; A549, read-out: pIC50 Assay 2 (converted)) [µM] |
| --- | --- | --- | --- | --- |
| Nc1ccc2ccc(CC[C@H]3O[C@@H](n4ccc5cncnc54)[C@H](O)[C@@H]3O)cc2n1 [Compound 167] | 0.000794 | 0.00501 | 0.00316 |  |
| COc1ncnc2c1ccn2[C@@H]1O[C@H](CN(C)c2ccc3cc(Br)cnc3c2)[C@@H](O)[C@H]1O [Compound 88] | > 10 | 7.94 | > 10 |  |
| Nc1ncnc2c1ccn2[C@@H]1C[C@H](CCc2ccc3ccc(NCC(F)(F)F)nc3c2)[C@@H](O)[C@H]1O [Compound 151] | 0.000794 | 0.0158 | 0.00501 |  |
| Nc1ncnc2c1ccn2[C@@H]1O[C@H](COc2cc(Cl)c3cccnc3c2)[C@@H](O)[C@H]1O [Compound 102] | 0.1 | 0.501 | > 10 |  |
| Nc1ccc2ccc(OC[C@H]3O[C@@H](n4ccc5c(N)ncnc54)[C@H](O)[C@@H]3O)cc2n1 [Compound 218] | 0.00251 | 0.00501 |  | 0.00501 |
| CCc1cnc2cc(OC[C@H]3O[C@@H](n4ccc5c(N)ncnc54)[C@H](O)[C@@H]3O)ccc2c1 [Compound 213] | 0.00794 | 0.0158 | 0.0631 |  |
| Nc1ncnc2c1ccn2[C@@H]1O[C@H](COc2ccc3cccnc3n2)[C@@H](O)[C@H]1O [Compound 17] | 1 | 1.58 | 7.94 |  |
| Cc1ncnc2c1ccn2[C@@H]1O[C@H](CCc2ccc3ccc(N)nc3c2)[C@@H](O)[C@H]1O [Compound 192] | 0.000631 | 0.01 | 0.00316 |  |
| Nc1nc(Cl)nc2c1ccn2[C@@H]1O[C@H](COc2ccc3cc(Cl)cnc3c2)[C@@H](O)[C@H]1O [Compound 4] | 0.0631 | 0.2 | ~0.617 |  |
| Nc1ncnc2c1ccn2[C@@H]1C[C@H](OCc2ccc3ncccc3c2)[C@@H](O)[C@H]1O [Compound 65] | 3.16 | 1 | 15.8 |  |
| Nc1ncnc2c1ccn2[C@@H]1O[C@H](COc2ccc3cc(C4CC4)cnc3c2)[C@@H](O)[C@H]1O [Compound 84] | 0.0158 | 0.0794 | 0.2 |  |
| O[C@@H]1[C@@H](CCc2ccc3ccc(NCc4ccc(Cl)cc4)nc3c2)C[C@@H](n2ccc3c(Cl)ncnc32)[C@@H]1O [Compound 114] | 0.0158 | 0.0251 | 0.0126 |  |
| Nc1ncnc2c1ccn2[C@@H]1C[C@H](CCc2ccc3cnc(NCC4CC4)nc3c2)[C@@H](O)[C@H]1O [Compound 141] | 0.00794 | 0.0501 | 0.0631 |  |
| Nc1ncnc2c1ccn2[C@@H]1O[C@H](COc2cc3ncccc3cc2C(F)(F)F)[C@@H](O)[C@H]1O [Compound 38] | 0.2 | 0.398 | 0.794 |  |
| CCc1cnc2cc(CC[C@H]3O[C@@H](n4ccc5c(N)ncnc54)[C@H](O)[C@@H]3O)ccc2c1 [Compound 122] | 0.0126 | 0.0501 | 0.0794 |  |
| CNc1ncnc2c1ccn2[C@@H]1O[C@H](COc2ccc3ccc(N)nc3c2)[C@@H](O)[C@H]1O [Compound 186] | 0.002 | 0.0158 | 0.0794 |  |
| Nc1ncnc2c1ccn2[C@@H]1C[C@H](COc2ccc3cc(Br)cnc3c2)[C@@H](O)[C@H]1O [Compound 47] | 0.0251 | 0.0631 | 0.0501 |  |
| Nc1ncnc2c1ccn2[C@@H]1C[C@H](CCc2ccc3ccc(NC4CC4)nc3c2)[C@@H](O)[C@H]1O [Compound 152] | 0.000501 | 0.00398 | < 0.00117 |  |
